Values quoted from earlier work, collected in patent US20050065134A1, “2-aklylidene-19-nor-vitamin D derivatives for the treatment of anorexia or low bone mass in females exhibiting aggressive athletic behavior” (Pfizer Inc, priority 2003, published 2005).
Like-named read-outs stand apart in the source and are kept apart here.

Test system: intestinal calcium transport
Settings: 7 days, rats

SMILES	change in intestinal calcium transport (in words) (130 and 260 pmol/day)	change in intestinal calcium transport (in words) (260 pmol/day, only dose tested)
C=C1[C@H](O)CC(=C/C=C2\CCC[C@]3(C)[C@@H]([C@H](C)CCCC(C)(C)O)CC[C@@H]23)C[C@H]1O [2-Methylene-19-Nor-1,25-(OH)2D3, 1α,25-dihydroxy-2-methylene-19-nor-vitamin D3]	no intestinal calcium transport activity	
C=C1/C(=C\C=C2/CCC[C@]3(C)[C@@H]([C@H](C)CCCC(C)(C)O)CC[C@@H]23)C[C@@H](O)C[C@@H]1O [1,25-(OH)2D3, 1,25-dihydroxyvitamin D3, reference compound]		expected elevation of intestinal calcium transport
C=C1[C@H](O)CC(=C/C=C2\CCC[C@]3(C)[C@@H]([C@@H](C)CCCC(C)(C)O)CC[C@@H]23)C[C@H]1O [2-Methylene-19-Nor-20S-1,25-(OH)2D3, (20S)-1α,25-dihydroxy-2-methylene-19-nor-vitamin D3]	no significant change	
